Test results taken from BindingDB's records for doi:10.1016/j.bmc.2006.12.026 (University of North Carolina At Chapel Hill, 2007).

Molecular target: T1, Nuclear receptor subfamily 1 group I member 2 (Homo sapiens, UniProt O75469)
T1 sequence (O75469 whole entry): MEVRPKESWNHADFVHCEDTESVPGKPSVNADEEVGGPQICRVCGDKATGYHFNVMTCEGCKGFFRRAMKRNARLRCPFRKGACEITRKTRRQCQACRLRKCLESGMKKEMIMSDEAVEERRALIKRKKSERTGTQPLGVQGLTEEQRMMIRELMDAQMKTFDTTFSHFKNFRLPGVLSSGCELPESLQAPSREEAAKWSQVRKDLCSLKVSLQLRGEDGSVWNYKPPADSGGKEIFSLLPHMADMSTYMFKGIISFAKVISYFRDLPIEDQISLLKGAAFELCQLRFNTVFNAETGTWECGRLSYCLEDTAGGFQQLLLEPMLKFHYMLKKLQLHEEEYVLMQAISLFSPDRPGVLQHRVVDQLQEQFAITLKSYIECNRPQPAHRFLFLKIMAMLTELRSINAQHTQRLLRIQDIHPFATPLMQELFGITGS
Assay: Competition Ligand Binding Assay and Transient Transfection Assay
Settings: pH 8; 22 °C
Experimental: Polylysine YiO imaging beads (Amersham, GE Healthcare) were coated with histidine-tagged WT PXR LBD. Nonspecific binding sites were blocked with BSA. [N-Methyl-3H]-GW0438X was added to the blocked receptor-bead. The receptor-bead-radioligand mix was added directly to test compounds in 384-well plates. […] Nonspecific binding was determined in the presence of 10 uM GW0438. Data analysis was achieved using a three-parameter fit. The data were calculated as pIC50s. The pEC50 values were obtained from measurement of Luciferase reporter activity in CV-1 cells transfected with full-length hPXR.

Structure (SMILES)	EC50 [nM]	IC50 [nM]
CCC(O)(c1ccc(N(CC(F)(F)F)S(=O)(=O)c2ccccc2)cc1)C(F)(F)F (stereo not drawn) [N-[4-(1,1,1-trifluoro-2-hydroxybutan-2-yl)phenyl]-N-(2,2,2-trifluoroethyl)benzenesulfonamide]	126	251
O=S(=O)(c1ccccc1)N(CC(F)(F)F)c1ccc(C(O)(C2CCCCC2)C(F)(F)F)cc1 (stereo not drawn) [N-[4-(1-cyclohexyl-2,2,2-trifluoro-1-hydroxyethyl)phenyl]-N-(2,2,2-trifluoroethyl)benzenesulfonamide]	3	–
